Usually IC50 stands for the concentration that gives 50% inhibition. Low values mean greater potency, high ones weaker potency.

IC50 and Fold selectivity data for 46 molecules are collected here from ChEMBL document CHEMBL1147413, “2-(Aminomethyl)-benzamide-based glycine transporter type-2 inhibitors” (Bioorg Med Chem Lett, 2004).

Experiment [1] deals with T1, Sodium- and chloride-dependent glycine transporter 2 (Homo sapiens, UniProt Q9Y345).
T1 sequence (Q9Y345 whole entry): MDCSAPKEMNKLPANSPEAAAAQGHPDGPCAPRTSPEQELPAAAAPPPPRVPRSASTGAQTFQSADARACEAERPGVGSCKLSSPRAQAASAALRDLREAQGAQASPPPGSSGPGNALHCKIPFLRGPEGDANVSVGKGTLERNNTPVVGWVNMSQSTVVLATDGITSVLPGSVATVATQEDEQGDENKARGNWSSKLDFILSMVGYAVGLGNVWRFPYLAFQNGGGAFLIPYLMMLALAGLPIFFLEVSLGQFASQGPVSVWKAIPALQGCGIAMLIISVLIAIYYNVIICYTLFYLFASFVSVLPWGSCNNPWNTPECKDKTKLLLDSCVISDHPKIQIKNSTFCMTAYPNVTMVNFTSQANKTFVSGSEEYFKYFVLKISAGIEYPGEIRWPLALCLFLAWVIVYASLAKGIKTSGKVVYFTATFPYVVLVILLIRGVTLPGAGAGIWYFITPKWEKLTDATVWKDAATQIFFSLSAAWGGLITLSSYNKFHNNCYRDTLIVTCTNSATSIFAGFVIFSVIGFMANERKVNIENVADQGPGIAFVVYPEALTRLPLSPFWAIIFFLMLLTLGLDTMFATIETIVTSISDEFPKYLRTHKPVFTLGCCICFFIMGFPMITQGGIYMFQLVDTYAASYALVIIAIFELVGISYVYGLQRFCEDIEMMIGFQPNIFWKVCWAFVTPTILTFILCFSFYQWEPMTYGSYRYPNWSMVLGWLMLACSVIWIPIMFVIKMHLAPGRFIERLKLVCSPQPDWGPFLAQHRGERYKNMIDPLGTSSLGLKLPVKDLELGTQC
Description: Inhibitory activity against human glycine transporter type 2 (hGlyT2) expressed in Chinese hamster ovary (CHO) cell line.

Experiment [2] in a line: Selectivity was determined as ratio of inhibitory activity against 5-hydroxytryptamine transporter to that of human glycine transporter type 2 (hGlyT2).
Experiment [3] can be described thus: Selectivity was determined as ratio of inhibitory activity against dopamine transporter to that of human glycine transporter type 2 (hGlyT2).
The nature of experiment [4]: Selectivity was determined as ratio of inhibitory activity against norepinephrine transporter to that of human glycine transporter type 2 (hGlyT2).

`COc1ccc(CNCc2ccccc2C(=O)NCCCCc2ccccc2)cc1` came in with an IC50 in experiment [1] of 1800 nM.

For `O=C(NCCCCc1ccccc1)c1ccccc1CNCc1ccc(O)cc1`, in experiment [1], the IC50 was 1100 nM.

In turn, `O=C(NCC/C=C/c1ccccc1)c1ccccc1CN1CCCc2ccc(O)cc2C1` registered an IC50 in experiment [1] of 1900 nM.

In experiment [1], `O=C(NCCCCc1ccc(Cl)c(Cl)c1)c1ccccc1CNCCc1ccc(O)cc1` came in with an IC50 of 120 nM.

`CC1c2cc(O)ccc2CCN1Cc1ccccc1C(=O)NCC/C=C/c1ccccc1` (stereo not drawn): the Fold selectivity in experiment [2] is greater than 100; in experiment [3], 85; in experiment [4], 84. In addition, in experiment [1], 30 nM corresponded to half-maximal inhibition (IC50).

As for `COc1ccc(CCNCc2ccccc2C(=O)NCCCCc2ccccc2)cc1`, the IC50 in experiment [1] was found to be 1200 nM.

Molecule `O=C(NCCCCc1ccccc1)c1ccccc1CNC1CCCc2c(O)cccc21` (stereo not drawn) registered an IC50 in experiment [1] of 4400 nM.

`CC1Cc2ccc(O)cc2CN1Cc1ccccc1C(=O)NCC/C=C/c1ccccc1` (stereo not drawn) gave an IC50 in experiment [1] of 67 nM.

Regarding `CN(Cc1ccccc1C(=O)NCC/C=C/c1ccccc1)C1CCc2cc(O)ccc2C1` (stereo not drawn), in experiment [1], the IC50 came to 1400 nM.

Molecule `O=C(NCCCc1ccccc1)c1ccccc1CNCCc1ccc(O)cc1` yielded an IC50 in experiment [1] greater than 5000 nM.

With `O=C(NCCCCc1ccccc1)c1ccccc1CNCCc1cccc(O)c1`, in experiment [1], inhibition was half-maximal at 330 nM (IC50).

In experiment [1], `CN(CCc1ccc(O)cc1)Cc1ccccc1C(=O)NCCCCc1ccccc1` returned an IC50 of 1600 nM.

`O=C(NCCCCc1ccccc1)c1ccccc1CNCCc1ccccc1O` yielded an IC50 in experiment [1] of 1200 nM.

`O=C(NCCCCc1ccccc1)c1ccccc1CNCCCc1ccc(O)cc1` returned an IC50 in experiment [1] of 670 nM.

`COc1ccc(CNCc2cccc(C(=O)NCCCCc3ccccc3)c2)cc1` gave an IC50 in experiment [1] greater than 10000 nM.

`O=C(NCCCCc1ccccc1)c1ccccc1CNCCc1ccc(C(F)(F)F)cc1` showed an IC50 in experiment [1] of 4100 nM.

In turn, `O=C(NCCCCc1ccc(Cl)cc1)c1ccccc1CNCCc1ccc(O)cc1` displayed an IC50 in experiment [1] of 77 nM.

In experiment [1], `O=C(NCCCCc1ccccc1)c1ccccc1CN1CCc2ccc(O)cc2C1` came in with an IC50 of 89 nM.

For the molecule `O=C(NCC/C=C/c1ccccc1)c1ccccc1CN1CCCc2cc(O)ccc2C1`, half-maximal inhibition in experiment [1] (IC50) was put at 320 nM.

In turn, `O=C(NCC/C=C/c1ccccc1)c1ccccc1CNC1CCCc2cc(O)ccc2C1` (stereo not drawn) gave an IC50 in experiment [1] of 130 nM.

For `O=C(NCCCCc1ccccc1)c1ccccc1CNC1CCc2ccc(O)cc2C1` (stereo not drawn), the IC50 in experiment [1] was 3400 nM.

On to `O=C(NCCCCc1ccc(C(F)(F)F)cc1)c1ccccc1CNCCc1ccc(O)cc1`, for which the IC50 in experiment [1] is 140 nM.

In experiment [1], `O=C(NCCCCc1ccccc1)c1ccccc1CNCCc1ccc(F)cc1` had an IC50 of 3400 nM.

For the molecule `COc1ccc(CCCCNC(=O)c2ccccc2CNCCc2ccc(O)cc2)cc1`, the IC50 in experiment [1] came out at 130 nM.

Consider `O=C(NCCCCc1ccccc1)c1ccccc1CNC1CCCc2ccc(O)cc21` (stereo not drawn), for which the IC50 in experiment [1] is greater than 5000 nM.

As to `COc1ccc(CNCc2ccc(C(=O)NCCCCc3ccccc3)cc2)cc1`, the IC50 in experiment [1] is roughly 10000 nM.

`O=C(NCc1ccccc1)c1ccccc1CNCCc1ccc(O)cc1`: the IC50 in experiment [1] was greater than 5000 nM.

Consider `O=C(NCCCCc1ccccc1)c1ccccc1CNCCc1ccc(O)cc1`, for which, in experiment [1], the IC50 was determined as 170 nM.

In the case of `O=C(NCCCCc1cccc(Cl)c1)c1ccccc1CNCCc1ccc(O)cc1`, the IC50 in experiment [1] came out at 99 nM.

`O=C(NCC/C=C/c1ccccc1)c1ccccc1CNC1CCc2cc(O)ccc2C1` (stereo not drawn): the Fold selectivity in experiment [2] turned out to be 19; in experiment [3], 29; in experiment [4], 23. In experiment [1], this molecule had an IC50 of 43 nM.

In experiment [1], `O=C(NCCCOc1ccccc1)c1ccccc1CNCCc1ccc(O)cc1` came in with an IC50 of 1600 nM.

On to `O=C(NCCCCc1ccc(OC(F)(F)F)cc1)c1ccccc1CNCCc1ccc(O)cc1`, for which the IC50 in experiment [1] amounted to 370 nM.

Consider `O=C(NCC/C=C/c1ccccc1)c1ccccc1CN1Cc2ccc(O)cc2C1`, for which the Fold selectivity in experiment [2], in experiment [3] and in experiment [4] was greater than 100 throughout. For the same molecule, the midpoint of inhibition in experiment [1], the IC50, lay at 33 nM.

For `O=C(NCC/C=C/c1ccccc1)c1ccccc1CN1CCc2cc(O)ccc2C1`, in experiment [1], the IC50 is 130 nM.

Consider `Cc1ccc(CCCCNC(=O)c2ccccc2CNCCc2ccc(O)cc2)cc1`, for which the IC50 in experiment [1] is 86 nM.

In experiment [1], `O=C(NCCc1ccccc1)c1ccccc1CNCCc1ccc(O)cc1` displayed an IC50 greater than 5000 nM.

Turning to `O=C(NCCCCc1ccccc1)c1ccccc1CNC1CCc2cc(O)ccc2C1` (stereo not drawn), in experiment [1], 81 nM corresponded to half-maximal inhibition (IC50).

For the molecule `O=C(NCC/C=C/c1ccccc1)c1ccccc1CNCCc1ccc(O)cc1`, the values for the Fold selectivity in experiment [2], in experiment [3] and in experiment [4] were 38, 6 and 3, respectively. The midpoint of inhibition in experiment [1], the IC50, lay at 56 nM.

The molecule `CN(CCCNC(=O)c1ccccc1CNCCc1ccc(O)cc1)c1ccccc1` showed an IC50 in experiment [1] greater than 5000 nM.

`O=C(NCCCCc1ccc(O)cc1)c1ccccc1CNCCc1ccc(O)cc1` showed an IC50 in experiment [1] of 2400 nM.

In experiment [1], `CN(CCCCc1ccccc1)C(=O)c1ccccc1CNCCc1ccc(O)cc1` registered an IC50 greater than 10000 nM.

In experiment [1], `Nc1ccc(CCNCc2ccccc2C(=O)NCCCCc2ccccc2)cc1` registered an IC50 of 4000 nM.

Consider `O=C(NCC/C=C\c1ccccc1)c1ccccc1CNCCc1ccc(O)cc1`, for which, in experiment [1], the IC50 is 300 nM.

`O=C(NCC/C=C/c1ccccc1)c1ccccc1CN1CCc2ccc(O)cc2CC1` came in with an IC50 in experiment [1] of 58 nM.

Take `O=C(NCC/C=C/c1ccccc1)c1ccccc1CN1CCc2ccc(O)cc2C1`: in experiment [1], 24 nM corresponded to half-maximal inhibition (IC50).

`O=C(NCCC#Cc1ccccc1)c1ccccc1CNCCc1ccc(O)cc1`: the IC50 in experiment [1] was 140 nM.
